Where two headings read alike, the source gives them in different places.
How the values were obtained:
[1] = molecular target: T1, HCV NS3/4A protease complex (BMS strain, genotype 1a) (Hepatitis C virus genotype 1a, UniProt P27958, C1454S); assay: Recombinant HCV NS3/4A protease complex FRET peptide assay, BMS strain; type: biochemical; settings: NS3/4A BMS Strain
T1 construct: DNA encoding the recombinant HCV NS3/4A protease complex (amino acids 1027 to 1711) for these strains; inferred from the pET21b vector and Ni-NTA purification; made in house; host or cells: Escherichia coli BL21 (DE3), pET21b
T1 sequence (P27958 1658-1714, looked up, stated change not applied): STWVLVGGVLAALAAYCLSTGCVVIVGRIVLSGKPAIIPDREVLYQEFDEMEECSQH
T1 sequence (P27958 1027-1657, looked up, stated change not applied): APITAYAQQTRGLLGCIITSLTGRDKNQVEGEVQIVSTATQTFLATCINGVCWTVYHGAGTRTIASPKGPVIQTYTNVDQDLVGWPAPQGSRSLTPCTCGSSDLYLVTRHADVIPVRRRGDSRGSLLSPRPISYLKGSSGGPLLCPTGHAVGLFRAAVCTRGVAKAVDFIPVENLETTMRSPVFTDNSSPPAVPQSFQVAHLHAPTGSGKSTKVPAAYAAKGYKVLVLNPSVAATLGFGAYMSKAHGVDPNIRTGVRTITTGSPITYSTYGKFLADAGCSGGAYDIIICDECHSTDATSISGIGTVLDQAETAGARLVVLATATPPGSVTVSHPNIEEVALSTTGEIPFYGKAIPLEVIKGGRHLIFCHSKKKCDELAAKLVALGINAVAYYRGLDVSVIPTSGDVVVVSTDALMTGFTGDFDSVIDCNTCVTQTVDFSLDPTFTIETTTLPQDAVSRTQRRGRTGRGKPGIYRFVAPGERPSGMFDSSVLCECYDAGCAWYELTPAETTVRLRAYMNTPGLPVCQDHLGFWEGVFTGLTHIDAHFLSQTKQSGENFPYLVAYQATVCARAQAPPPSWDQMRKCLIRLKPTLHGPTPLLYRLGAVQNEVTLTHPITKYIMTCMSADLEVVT
Procedure, shortened: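 Recombinant NS3/4A complex (aa 1027–1711) with C-terminal three-lysine tail, C1711G and C1454S, expressed in E. coli BL21(DE3) and purified by Ni-NTA then Superdex-S200. Inhibition of the complex from each strain measured in vitro by FRET peptide cleavage.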

[2] = system: HCV replicon in Huh7 cells; assay: HCV replicon cell-based assay (FRET); settings: HCV replicon, read-out: EC50 range
Procedure, shortened: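 Huh7 cells stably carrying a genotype 1b HCV replicon (IRES-neo-EMCV-IRES-NS3-NS5B) were treated with compound for 4 days at 37 °C in 0.5% DMSO final. Lysates containing 10 μM FRET peptide RET S1 were read kinetically at 340/490 nm to give NS3 protease activity, from which EC50 was derived.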

Row | SMILES | IC50 ([1]; IC50 range) [nM] | EC50 ([2]; Hepatitis C virus, Huh-7) [nM] | IC50 ([1]; read-out: IC50 range) [nM] | EC50 [2] [nM]
1 | C=C[C@@H]1C[C@]1(NC(=O)[C@@H]1C[C@@H](Oc2cc(-c3ccccc3)nc3cc(OC)ccc23)CN1C(=O)[C@@H](NC(=O)OC(C)(C)C)C(C)(C)C)C(=O)NS(=O)(=O)C1(CC2CCC2)CC1 [Compound 32, {1-[2-[1-(1-Cyclobutylmethyl-cyclopropanesulfonylaminocarbonyl)-2-vinyl-cyclopropylcarbamoyl]-4-(7-methoxy-2-phenyl-quinolin-4-yloxy)-pyrrolidine-1-carbonyl]-2,2-dimethyl-propyl}-carbamic acid tert-butyl ester] | < 50 | < 50 | – | –
2 | C=C[C@@H]1C[C@]1(NC(=O)[C@@H]1C[C@@H](Oc2cc(-c3ccccc3)nc3cc(OC)ccc23)CN1C(=O)[C@@H](NC(=O)OC(C)(C)C)C(C)(C)C)C(=O)NS(=O)(=O)C1(CC#CCC)CC1 [Compound 45, (1-{4-(7-Methoxy-2-phenyl-quinolin-4-yloxy)-2-[1-(1-pent-2-ynyl-cyclopropanesulfonylaminocarbonyl)-2-vinyl-cyclopropylcarbamoyl]-pyrrolidine-1-carbonyl}-2,2-dimethyl-propyl)-carbamic acid tert-butyl ester] | < 50 | < 50 | – | –
3 | C=CCCCCCCCC1(S(=O)(=O)NC(=O)C2(NC(=O)C3CC(Oc4cc(-c5ccccc5)nc5cc(OC)ccc45)CN3C(=O)C(NC(=O)OC(C)(C)C)C(C)(C)C)CC2C=C)CC1 (stereo not shown) [Compound 34, (1-{4-(7-Methoxy-2-phenyl-quinolin-4-yloxy)-2-[1-(1-non-8-enyl-cyclopropanesulfonylaminocarbonyl)-2-vinyl-cyclopropylcarbamoyl]-1-pyrrolidine-1-carbonyl}-2,2-dimethyl-propyl)-carbamic acid tert-butyl ester] | – | – | < 50 | < 50
4 | C=C[C@@H]1C[C@]1(NC(=O)[C@@H]1C[C@@H](Oc2cc(-c3ccccc3)nc3cc(OC)ccc23)CN1C(=O)[C@@H](NC(=O)Oc1ccc(OC)cc1)C(C)(C)C)C(=O)NS(=O)(=O)C1(Cc2ccccc2)CC1 [Compound 103] | 50 to 500 | 50 to 500 | – | –
5 | C=C[C@@H]1C[C@]1(NC(=O)[C@@H]1C[C@@H](Oc2cc(-c3ccccc3)nc3cc(OC)ccc23)CN1C(=O)[C@@H](NC(=O)OC(C)(C)C)C(C)(C)C)C(=O)NS(=O)(=O)C1(Cc2cccnc2)CC1 [Compound 49, (1-{4-(7-Methoxy-2-phenyl-quinolin-4-yloxy)-2-[1-(1-pyridin-3-ylmethyl-cyclopropanesulfonylaminocarbonyl)-2-vinyl-cyclopropylcarbamoyl]-pyrrolidine-1-carbonyl}-2,2-dimethyl-propyl)-carbamic acid tert-butyl] | < 50 | 50 to 500 | – | –
6 | C=C[C@@H]1C[C@]1(NC(=O)[C@@H]1C[C@@H](Oc2cc(-c3ccccc3)nc3cc(OC)ccc23)CN1C(=O)[C@@H](NC(=O)OC(C)(C)C)C(C)(C)C)C(=O)NS(=O)(=O)C1(CCC)CC1 [Compound 29, (1-{4-(7-Methoxy-2-phenyl-quinolin-4-yloxy)-2-[1-(1-propyl-cyclopropanesulfonylaminocarbonyl)-2-vinyl-cyclopropylcarbamoyl]-pyrrolidine-1-carbonyl}-2,2-dimethyl-propyl)-carbamic acid tert-butyl ester] | < 50 | < 50 | – | –
7 | C=C[C@@H]1C[C@]1(NC(=O)[C@@H]1C[C@@H](Oc2cc(-c3ccccc3)nc3cc(OC)ccc23)CN1C(=O)[C@@H](NC(=O)OC1CCCC1)C(C)(C)C)C(=O)NS(=O)(=O)C1(Cc2ccccc2)CC1 [Compound 55, {1-[2-[1-(1-Benzyl-cycloprolanesulfonylaminocarbonyl)-2-vinyl-cycloproylcarbamoyl]-4-(7-methoxy-2-phenyl-quinolin-4-yloxy)-pyrrolidine-1-carbonyl]-2,2-dimethyl-propyl}-carbamic acid cyclopentyl ester] | < 50 | 50 to 500 | – | –
8 | C=C[C@@H]1C[C@]1(NC(=O)[C@@H]1C[C@@H](Oc2cc(-c3ccccc3)nc3cc(OC)ccc23)CN1C(=O)[C@@H](NC(=O)OC1CCOCC1)C(C)(C)C)C(=O)NS(=O)(=O)C1(Cc2ccccc2)CC1 [Compound 56, {1-[2-[1-(1-Benzyl-cyclopropanesulfonylaminocarbonyl)-2-vinyl-cyclopropylcarbamoyl]-4-(7-methoxy-2-phenyl-quinolin-4-yloxy)-pyrrolidine-1-carbonyl]-2,2-dimethyl-propyl}-carbamic acid tetrahydro-pyran-4-yl Ester] | < 50 | 50 to 500 | – | –
9 | C=C[C@@H]1C[C@]1(NC(=O)[C@@H]1C[C@@H](Oc2ccnc3cc(Cl)ccc23)CN1C(=O)[C@@H](NC(=O)OC1CCCC1)C(C)(C)C)C(=O)NS(=O)(=O)C1(CCCC)CC1 [Compound 65, {1-[2-[1-(1-Butyl-cyclopropanesulfonylaminocarbonyl)-2-vinyl-cyclopropylcarbamoyl]-4-(7-chloro-quinolin-4-yloxy)-pyrrolidine-1-carbonyl]-2,2-dimethyl-propyl}-carbamic acid cyclopentyl ester] | < 50 | 50 to 500 | – | –
10 | C=CC1C[C@]1(NC(=O)[C@@H]1C[C@@H](Oc2cc(-c3ccccc3)nc3cc(OC)ccc23)CN1C(=O)[C@@H](NC(=O)OC(C)(C)C)C(C)(C)C)C(=O)NS(=O)(=O)C1(C(=O)c2ccccc2)CC1 (stereo in doubt) [Compound 4, {1-[2-[1-(1-Benzoylcyclopropanesulfonyl-aminocarbonyl)-2-vinyl-cyclopropylcarbamoyl]-4-(7-methoxy-2-phenylquinolin-4-yloxy)-pyrrolidine-1-carbonyl]-2,2-dimethylpropyl}-carbamic acid tert-butyl ester] | 50 to 500 | 50 to 500 | – | –
11 | C=C[C@@H]1C[C@]1(NC(=O)[C@@H]1C[C@@H](Oc2cc(-c3ccccc3)nc3cc(OC)ccc23)CN1C(=O)[C@@H](NC(=O)Oc1ccccc1)C(C)(C)C)C(=O)NS(=O)(=O)C1(Cc2ccccc2)CC1 [Compound 101] | 50 to 500 | 500 to 5000 | – | –
12 | C=C[C@@H]1C[C@]1(NC(=O)[C@@H]1C[C@@H](Oc2cc(-c3ccccc3)nc3cc(OC)ccc23)CN1C(=O)[C@@H](NC(=O)OCCF)C(C)(C)C)C(=O)NS(=O)(=O)C1(Cc2ccccc2)CC1 [Compound 106] | < 50 | 50 to 500 | – | –
13 | C=C[C@@H]1C[C@]1(NC(=O)[C@@H]1C[C@@H](Oc2cc(-c3ccccc3)nc3cc(OC)ccc23)CN1C(=O)[C@@H](NC(=O)OC(C)(C)C)C(C)(C)C)C(=O)NS(=O)(=O)C1(COC(C)C)CC1 [Compound 37, {1-[2-[1-(1-Isopropoxymethyl-cyclopropanesulfonylaminocarbonyl)-2-vinyl-cyclopropylcarbamoyl]-4-(7-methoxy-2-phenyl-quinolin-4-yloxy)-pyrrolidine-1-carbonyl]-2,2-dimethyl-propyl}-1-carbamic acid tert-butyl ester] | < 50 | < 50 | – | –
14 | C=CC1C[C@]1(NC(=O)[C@@H]1C[C@@H](Oc2cc(-c3ccccc3)nc3cc(OC)ccc23)CN1C(=O)[C@@H](NC(=O)OC(C)(C)C)C(C)(C)C)C(=O)NS(=O)(=O)C1(C2=CCCCC2)CC1 (stereo in doubt) [Compound 3, {1-[2-[1-(1-Cyclohex-1-enyl-cyclopropanesulfonylaminocarbonyl)-2-vinylcyclopropylcarbamoyl]-4-(7-methoxy-2-phenyl-quinolin-4-yloxy)pyrrolidine-1-carbonyl]-2,2-dimethylpropyl}carbamic acid tert-butyl ester] | 50 to 500 | 50 to 500 | – | –
15 | C=C[C@@H]1C[C@]1(NC(=O)[C@@H]1C[C@@H](Oc2cc(-c3ccccc3)nc3cc(OC)ccc23)CN1C(=O)[C@@H](NC(=O)OC(C)(C)C)C(C)(C)C)C(=O)NS(=O)(=O)C1(Cl)CC1 [Compound 38, {1-[2-[1-(1-Chloro-cyclopropanesulfonylaminocarbonyl)-2-vinyl-cyclopropylcarbamoyl]-4-(7-methoxy-2-phenyl-quinolin-4-yloxy)-pyrrolidine-1-carbonyl]-2,2-dimethyl-propyl}-carbamic acid tert-butyl ester] | < 50 | < 50 | – | –
16 | C=C[C@@H]1C[C@]1(NC(=O)[C@@H]1C[C@@H](Oc2cc(C3CC3)nc3cc(OC)ccc23)CN1C(=O)[C@@H](NC(=O)OC(C)(C)C)C(C)(C)C)C(=O)NS(=O)(=O)C1(CC#CCC)CC1 [Compound 69, (1-{4-(2-Cyclopropyl-7-methoxy-quinolin-4-yloxy)-2-[1-(1-pent-2-ynyl-cyclopropanesulfonylaminocarbonyl)-2-vinyl-cyclopropylcarbamoyl]-pyrrolidine-1-carbonyl}-2,2-dimethyl-propyl)-carbamic acid tert-butyl ester] | < 50 | < 50 | – | –
17 | C=CC1C[C@]1(NC(=O)[C@@H]1C[C@@H](Oc2cc(-c3ccccc3)nc3cc(OC)ccc23)CN1C(=O)[C@@H](NC(=O)OC(C)(C)C)C(C)(C)C)C(=O)NS(=O)(=O)C1(C(=O)NCCC)CC1 (stereo in doubt) [Compound 9, (1-{4-(7-Methoxy-2-phenylquinolin-4-yloxy)-2-[1-(1-propylcarbamoyl-cyclopropanesulfonylaminocarbonyl)-2-vinylcyclopropylcarbamoyl]pyrrolidine-1-carbonyl}-2,2-dimethyl-propyl)carbamic acid tert-butyl ester] | < 50 | < 50 | – | –

From patent publication US6878722B2, “Substituted cycloalkyl P1′ hepatitis C virus inhibitors” (Bristol-Myers Squibb Company, priority 2002, dated 2005)
